Consider 3 substances from paper PMC10537403 (Viruses, 2023).

What all share (assay type): cell-based
Series [1] relates to canine distemper virus (CDV, strain Onderstepoort). Kind of series: Antiviral activity against CDV, plaque assay, time of addition assays. The note with it: VERO/hSLAM cells, co-treatment, virus pre-treatment, cell pre-treatment, post-treatment.
Series [2] relates to bovine herpesvirus type 1 (BoHV-1, Cooper strain). Nature of the series: Antiviral activity against BoHV-1, plaque assay, time of addition assays. Conditions: MDBK cells.
Series [3] relates to VERO/hSLAM, BHK-21, and MDBK cell lines. Kind of series: Cytotoxicity, MTT assay. Conditions: 2 and 24 h, peptides […] to 100 μM. A general note: Tetrazolium dyes change colour on reduction, which living cells bring about.
Series [4] relates to Schmallenberg virus (SBV). The note with it: BHK-21 cells, SBV 200 TCID50 incubated with peptide 1 h, CPE at 72 h, MTT staining.
In series [5] the test system is caprine herpesvirus type 1 (CpHV-1, reference Swiss strain E/CH). Kind of series: Antiviral activity against CpHV-1, plaque assay, time of addition assays. The note with it: MDBK cells.

No end group written: not given here.

Take “H-GILDAIKAIAKAAG-OH [Hylaseptin-P1, amphibian peptide derived from Leptopelis aubryi]”: the “Inhibitory effect against CDV in all the time-addition assays (in words)” value in series [1] is listed as “did not show an inhibitory effect”. For the same substance, in series [2], the “Antiviral action against BoHV-1 (in words)” value is recorded as “no antiviral action”. Besides, in series [3], the “Cytotoxicity (in words)” value is “not cytotoxic even at higher concentrations tested”. For the same substance, the “Activity against SBV infection (in words)” value (“Activity” for short) in series [4] is on record as “any activity”. In addition, the “Antiviral action against CpHV-1 (in words)” value in series [5] is listed as “no antiviral action”.
“H-GLADFLNKAVGKVVDFVKS-NH2 [Deserticolin-1, amphibian peptide secreted by Crinia deserticola]”: the “Inhibitory effect against CDV in all the time-addition assays (in words)” value in series [1] is reported as “did not show an inhibitory effect”. Besides, the “Antiviral action against BoHV-1 (in words)” value in series [2] is “no antiviral action”. In addition, the “Cytotoxicity (in words)” value in series [3] is recorded as “not cytotoxic even at higher concentrations tested”. The “Activity” value in series [4] was “any activity”. The “Antiviral action against CpHV-1 (in words)” value in series [5] is reported as “no antiviral action”.
As for RIGVLLARLPKLFSLFKLMGKKV-NH2 [RV-23], in series [4], the “Activity” value is recorded as “able to reduce SBV infection with a higher efficacy”.
